Experimental data taken from patent US20070048250A1, “Methods of treating concomitant constipation in a cancer treatment regimen including imexon” (AmpliMed Corporation, priority 2005, published 2007).

What was measured:
cancer patients = conditions: phase I; cited from earlier work
[1] = test system: gastrointestinal transit of a charcoal meal; experiment: GLP study, gastrointestinal transit of a charcoal meal in rats; type: in vivo; conditions: intravenous, 100 mg/kg
Source text: Following the unexpected identification of constipation toxicities in patients being treated with imexon in a cancer treatment regimen, a GLP (good laboratory practices) study was undertaken to evaluate the effects of imexon on the gastrointestinal transit of a charcoal meal in rats.

human tumor cell lines = conditions: cited from earlier work
[2] = test system: human lymphoma, melanoma, and prostate cancer cell lines; conditions: mouse, in vivo; cited from earlier work
rats = conditions: numerous studies; cited from earlier work
[3] = combined with cisplatin, dacarbazine, melphalan, cytarabine, 5-fluorouracil, gemcitabine, or docetaxel; cited from earlier work
transplanted tumors = conditions: in vivo; cited from earlier work
mast cell tumors = conditions: dog, in vivo; cited from earlier work

N=C1NC(=O)N2CC12 (stereo not shown) [imexon, 4-imino-1,3-diazabicyclo[3.1.0]-hexan-2-one]
clinical response (cancer patients): produced objective responses or stabilized neoplastic diseases
tolerability (cancer patients): well tolerated
effect on gastric emptying [1]: reduction in gastric emptying
effect on gastrointestinal transit [1]: statistically significant inhibition of gastrointestinal transit
activity against a variety of human tumor cell lines in culture (human tumor cell lines): active
activity against human lymphoma, melanoma, and prostate cancer cell lines in SCID mice [2]: active
gastrointestinal lesions on pathologic examination (rats): not shown evidence of gastrointestinal lesions
effect of combination [3]: synergistic therapeutic cytotoxic effect
activity against a variety of transplanted tumors in rodents (transplanted tumors): active
tumor response in dogs with mast cell tumors (mast cell tumors): Objective responses have been observed
